Experimental data taken from ChEMBL document CHEMBL1133432, “Probes for imidazoline binding sites: synthesis and evaluation of a selective, irreversible I2 ligand” (Bioorg Med Chem Lett, 2000).

Legend:
[1] = molecular target: T1, Adrenergic receptor alpha-2 (Rattus norvegicus, UniProt P22086+P19328+P22909); assay: Inhibition of 1 nM [3H]RX-821002 binding to rat whole brain membrane Alpha-2 adrenergic receptors
T1 sequence (P22086 whole entry): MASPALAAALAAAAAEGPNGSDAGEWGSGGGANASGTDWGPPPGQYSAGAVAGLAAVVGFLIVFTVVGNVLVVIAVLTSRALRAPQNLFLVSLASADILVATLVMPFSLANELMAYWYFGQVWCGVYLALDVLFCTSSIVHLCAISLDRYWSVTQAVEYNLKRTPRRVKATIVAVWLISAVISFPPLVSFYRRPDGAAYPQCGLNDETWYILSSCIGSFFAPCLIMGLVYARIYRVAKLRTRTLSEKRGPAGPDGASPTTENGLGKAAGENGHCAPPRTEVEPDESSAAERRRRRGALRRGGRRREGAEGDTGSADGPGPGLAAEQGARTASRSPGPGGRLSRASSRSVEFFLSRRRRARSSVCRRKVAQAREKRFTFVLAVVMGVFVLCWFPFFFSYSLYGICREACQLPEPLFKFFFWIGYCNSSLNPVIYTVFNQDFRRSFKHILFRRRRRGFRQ
T1 sequence (P19328 whole entry): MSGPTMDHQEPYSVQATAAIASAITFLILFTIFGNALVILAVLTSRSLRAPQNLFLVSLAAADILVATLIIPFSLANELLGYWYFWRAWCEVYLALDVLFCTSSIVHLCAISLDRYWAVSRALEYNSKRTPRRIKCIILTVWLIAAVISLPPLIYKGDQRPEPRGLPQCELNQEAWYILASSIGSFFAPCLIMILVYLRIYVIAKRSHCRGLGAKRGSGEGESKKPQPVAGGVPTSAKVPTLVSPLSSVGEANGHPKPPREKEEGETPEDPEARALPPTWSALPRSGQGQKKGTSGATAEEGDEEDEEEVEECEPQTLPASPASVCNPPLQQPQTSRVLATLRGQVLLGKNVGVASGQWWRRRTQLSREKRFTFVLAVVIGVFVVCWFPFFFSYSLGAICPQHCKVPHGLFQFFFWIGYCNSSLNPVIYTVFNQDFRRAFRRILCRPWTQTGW
T1 sequence (P22909 whole entry): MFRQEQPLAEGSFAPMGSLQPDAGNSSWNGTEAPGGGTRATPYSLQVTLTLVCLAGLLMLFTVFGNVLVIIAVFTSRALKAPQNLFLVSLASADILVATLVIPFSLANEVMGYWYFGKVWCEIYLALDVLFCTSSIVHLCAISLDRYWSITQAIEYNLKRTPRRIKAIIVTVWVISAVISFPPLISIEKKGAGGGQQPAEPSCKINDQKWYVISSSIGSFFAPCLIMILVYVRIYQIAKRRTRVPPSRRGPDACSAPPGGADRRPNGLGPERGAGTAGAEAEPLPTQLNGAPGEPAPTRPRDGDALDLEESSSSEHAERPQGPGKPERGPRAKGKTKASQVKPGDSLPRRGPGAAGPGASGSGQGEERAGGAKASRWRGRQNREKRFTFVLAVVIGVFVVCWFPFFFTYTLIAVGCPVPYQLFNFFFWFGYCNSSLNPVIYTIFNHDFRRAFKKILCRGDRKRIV

[2] = Inhibition of 1 nM [3H]2-BFI binding to rat whole brain membrane imidazoline receptor I-2

Structure (SMILES) | Ki [1] [nM] | Ki [2] [nM]
N#CSc1ccc2oc(C3=NCCN3)cc2c1 | 16300 | 2.3
c1ccc2oc(C3=NCCN3)cc2c1 | 1900 | 1.7
